“And” between values parts separate entries of the source, which are not always exact repeats. Identical values can stand only once.
Tests used:
Type in all cases: in vivo, rhesus monkey (Macaca mulatta)
[1] = tested on: retinal ischemia/reperfusion (I/R) rhesus monkey model; test: OCT Global mean thickness of retinal nerve fiber layer (RNFL), retinal I/R model; settings: change vs before modeling; further: test concentration or dose not given here
[2] = tested on: retinal ischemia/reperfusion (I/R) rhesus monkey model; test: OCT mean thickness of 9-room retinal EDTRS area, retinal I/R model; settings: change vs before modeling; further: test concentration or dose not given here
[3] = tested on: retinal ganglion cells (RGC); test: Brn3a immunohistochemistry retinal ganglion cell count, retinal ischemia/reperfusion (I/R) model; settings: for average loss of RGC cells: I/R eyes vs contralateral OS eye, Day 63 after retinal I/R, oral 63 days; for protection on retinal ganglion cells: retinal I/R, 63 days of treatment; on average loss of RGC cells: test concentration or dose not given here
[4] = tested on: rhesus monkeys with spontaneous diabetic peripheral neuropathy; test: Nerve electromyogram: sensory nerve conduction velocity (SCV) of abnormal nerves, spontaneous DPN model; settings: for Variation value, sensory nerve conduction velocity, Mean ± SD / Administration D58, sensory nerve conduction velocity, Mean ± SD / Baseline value, sensory nerve conduction velocity, Mean ± SD: group mean over all abnormal nerves; for Variation value, sensory nerve conduction velocity, Mean ± SD / Variation value, sensory nerve conduction velocity: D58 minus baseline; for Administration D58, sensory nerve conduction velocity, Mean ± SD / Administration D58, sensory nerve conduction velocity: Day 58 of administration; for Baseline value, sensory nerve conduction velocity, Mean ± SD / Baseline value, sensory nerve conduction velocity: before administration; for Variation value, sensory nerve conduction velocity / Administration D58, sensory nerve conduction velocity / Baseline value, sensory nerve conduction velocity: individual animal; on Administration D58, sensory nerve conduction velocity, Mean ± SD: test concentration or dose not given here; on Administration D58, sensory nerve conduction velocity: test concentration or dose not given here; on Variation value, sensory nerve conduction velocity, Mean ± SD: test concentration or dose not given here; on Variation value, sensory nerve conduction velocity: test concentration or dose not given here
[5] = tested on: sural nerve of rhesus monkeys with spontaneous diabetic peripheral neuropathy; test: Nerve electromyogram: sural sensory nerve conduction velocity, spontaneous DPN model; settings: for Change value, sural sensory nerve conduction velocity, Mean ± SD / D58 of administration, sural sensory nerve conduction velocity, Mean ± SD / Baseline value, sural sensory nerve conduction velocity, Mean ± SD: group mean over abnormal sural nerves; for Change value, sural sensory nerve conduction velocity, Mean ± SD / Change value, sural sensory nerve conduction velocity: D58 minus baseline; for D58 of administration, sural sensory nerve conduction velocity, Mean ± SD / D58 of administration, sural sensory nerve conduction velocity: Day 58 of administration; for Baseline value, sural sensory nerve conduction velocity, Mean ± SD: before administration; for Change value, sural sensory nerve conduction velocity / D58 of administration, sural sensory nerve conduction velocity: individual animal; on Change value, sural sensory nerve conduction velocity, Mean ± SD: test concentration or dose not given here; on Change value, sural sensory nerve conduction velocity: test concentration or dose not given here; on D58 of administration, sural sensory nerve conduction velocity, Mean ± SD: test concentration or dose not given here; on D58 of administration, sural sensory nerve conduction velocity: test concentration or dose not given here
[6] = OS (non-ischemic contralateral eye), Day 35
[7] = OS (non-ischemic contralateral eye), Day 63
[8] = OS (non-ischemic contralateral eye), Day 7
[9] = OS (non-ischemic contralateral eye), Day 21
[10] = spontaneous DPN, 58 days, P>0.05 vs placebo group

COc1cc2nc(N3CCN(C(=O)C4COc5ccccc5O4)CC3)nc(N)c2cc1OC (racemic) [DOX, (RS)-2-[4-(2,3-Dihydro-1,4-benzodioxine-2-carbonyl)piperazin-1-yl]-6,7-dimethoxyquinazolin-4-amine]
Δ Global mean thickness of retinal nerve fiber layer (RNFL) ([1]; OD (I/R injury), Day 35): −14 ± 4 μm | Δ Global mean thickness of retinal nerve fiber layer (RNFL) ([1]; OD (I/R injury), Day 63): −21 ± 7 μm | Δ Global mean thickness of retinal nerve fiber layer (RNFL) [1, 6]: 1 ± 2 μm | Δ Global mean thickness of retinal nerve fiber layer (RNFL) [1, 7]: 1 ± 1 μm | Δ mean thickness of the 9-room retinal EDTRS area ([2]; OD (IR injury), Day 7): −26 ± 0 μm | Δ mean thickness of the 9-room retinal EDTRS area ([2]; OD (IR injury), Day 21): −48 ± 7 μm | Δ mean thickness of the 9-room retinal EDTRS area ([2]; OD (IR injury), Day 35): −54 ± 10 μm | Δ mean thickness of the 9-room retinal EDTRS area ([2]; OD (IR injury), Day 63): −58 ± 9 μm | Δ mean thickness of the 9-room retinal EDTRS area [2, 8]: −5 ± 4 μm | Δ mean thickness of the 9-room retinal EDTRS area [2, 9]: −3 ± 4 μm | Δ mean thickness of the 9-room retinal EDTRS area [2, 6]: −3 ± 3 μm | Δ mean thickness of the 9-room retinal EDTRS area [2, 7]: −3 ± 5 μm | average loss of RGC cells [3]: 63.9±14.1% | protection on retinal ganglion cells [3]: weak protection

CC(/C=C1\SC(=S)N(CC(=O)O)C1=O)=C\c1ccccc1 [Epalrestat, epalrestat]
Variation value, sensory nerve conduction velocity, Mean ± SD [4]: 4.2 ± 4.0 m/s | Administration D58, sensory nerve conduction velocity, Mean ± SD [4]: 43.6 ± 7.3 m/s | Baseline value, sensory nerve conduction velocity, Mean ± SD [4]: 38.8 ± 4.7 m/s | Variation value, sensory nerve conduction velocity ([4]; left median nerve (abnormal)): 1.5 m/s and 8.6 m/s | Administration D58, sensory nerve conduction velocity ([4]; left median nerve (abnormal)): 40 m/s and 51.2 m/s | Baseline value, sensory nerve conduction velocity ([4]; left median nerve (abnormal)): 38.5 m/s and 42.6 m/s | Variation value, sensory nerve conduction velocity ([4]; left sural nerve (abnormal)): −1.1 m/s and 5.6 m/s and 6.1 m/s | Baseline value, sensory nerve conduction velocity ([4]; left sural nerve (abnormal)): 40.4 m/s and 39.6 m/s and 35.3 m/s | Variation value, sensory nerve conduction velocity ([4]; left ulnar nerve (abnormal)): 8.3 m/s | Administration D58, sensory nerve conduction velocity ([4]; left ulnar nerve (abnormal)): 50.7 m/s | Baseline value, sensory nerve conduction velocity ([4]; left ulnar nerve (abnormal)): 42.4 m/s | Variation value, sensory nerve conduction velocity ([4]; right median nerve (abnormal)): −0.7 m/s and 4.8 m/s | Administration D58, sensory nerve conduction velocity ([4]; right median nerve (abnormal)): 25.1 m/s and 48.2 m/s | Baseline value, sensory nerve conduction velocity ([4]; right median nerve (abnormal)): 25.8 m/s and 43.4 m/s | Variation value, sensory nerve conduction velocity ([4]; right sural nerve (abnormal)): 0.4 m/s and 2.8 m/s and −0.6 m/s and 9.3 m/s | Baseline value, sensory nerve conduction velocity ([4]; right sural nerve (abnormal)): 40.9 m/s and 36.8 m/s and 44.4 m/s and 34.6 m/s | Variation value, sensory nerve conduction velocity ([4]; right ulnar nerve (abnormal)): 9.2 m/s | Administration D58, sensory nerve conduction velocity ([4]; right ulnar nerve (abnormal)): 48.4 m/s | Baseline value, sensory nerve conduction velocity ([4]; right ulnar nerve (abnormal)): 39.2 m/s | mean increase in SCV of nerves with abnormal conduction velocities vs baseline ([4]; spontaneous DPN, administered for 58 days): 4.2±4.0 m/s | Change value, sural sensory nerve conduction velocity, Mean ± SD [5]: 3.2 ± 3.9 m/s | D58 of administration, sural sensory nerve conduction velocity, Mean ± SD [5]: 42.1 ± 2.1 m/s | Baseline value, sural sensory nerve conduction velocity, Mean ± SD [5]: 38.9 ± 3.2 m/s | Change value, sural sensory nerve conduction velocity ([5]; left sural nerve (abnormal)): 6.1 m/s and −1.1 m/s and 5.6 m/s | D58 of administration, sural sensory nerve conduction velocity ([5]; left sural nerve (abnormal)): 41.4 m/s and 39.3 m/s and 45.2 m/s | Change value, sural sensory nerve conduction velocity ([5]; right sural nerve (abnormal)): 9.3 m/s and 0.4 m/s and 2.8 m/s and −0.6 m/s | D58 of administration, sural sensory nerve conduction velocity ([5]; right sural nerve (abnormal)): 43.9 m/s and 41.3 m/s and 39.6 m/s and 43.8 m/s | average increase in sensory nerve conduction velocity (SCV) of abnormal sural nerves vs baseline ([5]; spontaneous DPN, 58 days of administration): 3.2±3.9 m/s | nerves determined to be effectively improved in conduction velocity (of abnormal sural nerves) ([5]; spontaneous DPN, 58 days, effective = return to normal or increase by 2-5 m/s or more): 4/7

CCCN[C@H]1CCc2nc(N)sc2C1 [PMP, (S)—N6-propyl-4,5,6,7-tetrahydro-1,3-benzothiazole-2,6-diamine]
Variation value, sensory nerve conduction velocity, Mean ± SD [4]: 0.4 ± 1.3 m/s | Administration D58, sensory nerve conduction velocity, Mean ± SD [4]: 39.0 ± 5.1 m/s | Baseline value, sensory nerve conduction velocity, Mean ± SD [4]: 38.6 ± 4.9 m/s | Variation value, sensory nerve conduction velocity ([4]; left median nerve (abnormal)): −1.9 m/s and 0.8 m/s | Administration D58, sensory nerve conduction velocity ([4]; left median nerve (abnormal)): 42.1 m/s and 40.0 m/s | Baseline value, sensory nerve conduction velocity ([4]; left median nerve (abnormal)): 44.0 m/s and 39.2 m/s | Variation value, sensory nerve conduction velocity ([4]; left sural nerve (abnormal)): −0.3 m/s and 1.9 m/s | Baseline value, sensory nerve conduction velocity ([4]; left sural nerve (abnormal)): 40.5 m/s and 38.5 m/s | Variation value, sensory nerve conduction velocity ([4]; right median nerve (abnormal)): −0.6 m/s | Administration D58, sensory nerve conduction velocity ([4]; right median nerve (abnormal)): 25.6 m/s | Baseline value, sensory nerve conduction velocity ([4]; right median nerve (abnormal)): 26.2 m/s | Variation value, sensory nerve conduction velocity ([4]; right sural nerve (abnormal)): −0.4 m/s and 2.1 m/s and 1.4 m/s | Baseline value, sensory nerve conduction velocity ([4]; right sural nerve (abnormal)): 40.0 m/s and 39.0 m/s and 41.2 m/s | improvement in abnormal sensory nerve conduction velocity compared with the placebo group [4, 10]: no significant improvement | Change value, sural sensory nerve conduction velocity, Mean ± SD [5]: 0.9 ± 1.1 m/s | D58 of administration, sural sensory nerve conduction velocity, Mean ± SD [5]: 40.8 ± 1.0 m/s | Baseline value, sural sensory nerve conduction velocity, Mean ± SD [5]: 39.8 ± 1.0 m/s | Change value, sural sensory nerve conduction velocity ([5]; left sural nerve (abnormal)): −0.3 m/s and 1.9 m/s | D58 of administration, sural sensory nerve conduction velocity ([5]; left sural nerve (abnormal)): 40.2 m/s and 40.4 m/s | Change value, sural sensory nerve conduction velocity ([5]; right sural nerve (abnormal)): −0.4 m/s and 2.1 m/s and 1.4 m/s | D58 of administration, sural sensory nerve conduction velocity ([5]; right sural nerve (abnormal)): 39.6 m/s and 41.1 m/s and 42.6 m/s | improvement in abnormal sural sensory nerve conduction velocity compared with the placebo group [5, 10]: no significant improvement | Δ Global mean thickness of retinal nerve fiber layer (RNFL) ([1]; OD (I/R injury), Day 35): −41 ± 8 μm | Δ Global mean thickness of retinal nerve fiber layer (RNFL) ([1]; OD (I/R injury), Day 63): −46 ± 3 μm | Δ Global mean thickness of retinal nerve fiber layer (RNFL) [1, 6]: −2 ± 1 μm | Δ Global mean thickness of retinal nerve fiber layer (RNFL) [1, 7]: 2 ± 1 μm | Δ mean thickness of the 9-room retinal EDTRS area ([2]; OD (IR injury), Day 7): −50 ± 14 μm | Δ mean thickness of the 9-room retinal EDTRS area ([2]; OD (IR injury), Day 21): −79 ± 15 μm | Δ mean thickness of the 9-room retinal EDTRS area ([2]; OD (IR injury), Day 35): −85 ± 14 μm | Δ mean thickness of the 9-room retinal EDTRS area ([2]; OD (IR injury), Day 63): −88 ± 18 μm | Δ mean thickness of the 9-room retinal EDTRS area [2, 8]: −3 ± 5 μm | Δ mean thickness of the 9-room retinal EDTRS area [2, 9]: −6 ± 3 μm | Δ mean thickness of the 9-room retinal EDTRS area [2, 6]: −2 ± 4 μm | Δ mean thickness of the 9-room retinal EDTRS area [2, 7]: 3 ± 3 μm | average loss of RGC cells [3]: 60.0% | protection on retinal ganglion cells [3]: weak protection

— US20240238295A1, “METHOD FOR MODULATING NEUROPATHIES” (priority 2021, published 2024)
